Source: ChEMBL document CHEMBL2440096, “Synthesis, structure analysis, antitumor evaluation and 3D-QSAR studies of 3,6-disubstituted-dihydro-1,2,4,5-tetrazine derivatives” (Bioorg Med Chem Lett, 2013)

What was measured:
A549 = test: Antiproliferative activity against human A549 cells by SRB assay; type: functional, cell-based
P388 = test: Antiproliferative activity against mouse P388 cells by MTT assay; type: functional, cell-based

| SMILES | IC50 (A549; read-out: IC50) | IC50 (A549; read-out: pIC50 (converted)) | IC50 (P388) |
| --- | --- | --- | --- |
| COC(=O)N1C(c2ccccc2)=NN=C(c2ccccc2)N1C(=O)OC | > 100 µM |  | > 100 µM |
| Clc1ccc(C2=NN=C(c3ccc(Cl)cc3)NN2)cc1 | 51.8 µM | 51.8 µM |  |
| CCCCN1N=C(C)N(CCCC)N=C1C | 68.5 µM | 68.5 µM |  |
| CC1=NN(C(=O)Nc2ccccc2O)C(C)=NN1C(=O)Nc1ccccc1O | 57.3 µM | 57.3 µM |  |
| COC(=O)N1N=C(c2cccc(Cl)c2)N(C(=O)OC)N=C1c1cccc(Cl)c1 | 89 µM | 88.9 µM |  |
| COC(=O)N1N=C(c2cccc([N+](=O)[O-])c2)N(C(=O)OC)N=C1c1cccc([N+](=O)[O-])c1 | 83.6 µM | 83.6 µM |  |
| COC(=O)N1N=C(c2ccc(Cl)cc2)N(C(=O)OC)N=C1c1ccc(Cl)cc1 | 76.7 µM | 76.7 µM |  |
| COC(=O)N1N=C(c2ccc(Cl)cc2Cl)N(C(=O)OC)N=C1c1ccc(Cl)cc1Cl | 79.3 µM | 79.3 µM |  |
| O=S(=O)(c1ccccc1)N1N=C(c2ccccc2)N(S(=O)(=O)c2ccccc2)N=C1c1ccccc1 | 74.1 µM | 74.1 µM |  |
| O=S(=O)(c1ccccc1)N1N=C(c2ccc(Cl)cc2)N(S(=O)(=O)c2ccccc2)N=C1c1ccc(Cl)cc1 | 51.9 µM | 51.9 µM |  |
| COc1ccc(C2=NN(S(=O)(=O)c3ccccc3)C(c3ccc(OC)cc3)=NN2S(=O)(=O)c2ccccc2)cc1 | 58.8 µM | 58.7 µM |  |
| Cc1ccc(S(=O)(=O)N2N=C(c3ccccc3)N(S(=O)(=O)c3ccc(C)cc3)N=C2c2ccccc2)cc1 | 85.8 µM | 85.7 µM |  |
| Clc1ccc(CC2=NNC(Cc3ccc(Cl)cc3)=NN2)cc1 | 51.8 µM | 51.8 µM |  |
| CCCOC(=O)N1C(c2ccc(C(F)(F)F)cc2)=NN=C(c2ccc(C(F)(F)F)cc2)N1C(=O)OCCC | > 100 µM |  | > 100 µM |
| O=C(OCC1CCCCC1)N1C(c2ccc(C(F)(F)F)cc2)=NN=C(c2ccc(C(F)(F)F)cc2)N1C(=O)OCC1CCCCC1 | > 100 µM |  | > 100 µM |
| CCOC(=O)N1N=C(c2ccccc2)NN=C1c1ccccc1 | > 100 µM |  | > 100 µM |
| CCCOC(=O)N1N=C(c2ccccc2)NN=C1c1ccccc1 | > 100 µM |  | > 100 µM |
| O=C(OCCCl)N1N=C(c2ccccc2)NN=C1c1ccccc1 | 101 µM |  | > 100 µM |
| O=C(OCC1CCCCC1)N1C(c2ccccc2)=NN=C(c2ccccc2)N1C(=O)OCC1CCCCC1 | > 100 µM |  | > 100 µM |
| CCCOC(=O)N1C(c2ccccc2)=NN=C(c2ccccc2)N1C(=O)OCCC | > 100 µM |  | 11.7 µM |

Now from value to compound:

| IC50 (A549; read-out: IC50) | IC50 (A549; read-out: pIC50 (converted)) | IC50 (P388) | SMILES |
| --- | --- | --- | --- |
| 0.035 µM | 0.035 µM |  | COc1cc(NC(=O)N2N=C(C)N(C(=O)Nc3cc(OC)cc(OC)c3)N=C2C)cc(OC)c1 |
| 26.6 µM |  | 11.2 µM | CCOC(=O)N1C(c2ccccc2)=NN=C(c2ccccc2)N1C(=O)OCC |
| 19.9 µM | 19.9 µM |  | c1ccc(C2=NNC(c3ccccc3)=NN2)cc1 |
| 0.574 µM | 0.574 µM |  | CC1=NN(C(=O)Nc2cccc(C)c2)C(C)=NN1C(=O)Nc1cccc(C)c1 |
| 5.42 µM | 5.42 µM |  | CCCC1=NN(C(=O)Nc2ccccc2)C(CCC)=NN1C(=O)Nc1ccccc1 |
| 1.1 µM | 1.1 µM |  | CCCC1=NN(C(=O)Nc2cccc(Cl)c2)C(CCC)=NN1C(=O)Nc1cccc(Cl)c1 |
| 3.66 µM | 3.66 µM |  | CC1=NN(C(=O)Nc2cc(C)cc(C)c2)C(C)=NN1C(=O)Nc1cc(C)cc(C)c1 |
| 2.22 µM | 2.22 µM |  | CC(C)C(=O)N1N=C(c2ccccc2)NN=C1c1ccccc1 |
| 8.53 µM | 8.53 µM |  | O=C(CCl)N1N=C(c2ccc(C(F)(F)F)cc2)NN=C1c1ccc(C(F)(F)F)cc1 |
| 9.56 µM | 9.55 µM |  | CCC(=O)N1N=C(c2ccc(C(F)(F)F)cc2)NN=C1c1ccc(C(F)(F)F)cc1 |
| 44.7 µM | 44.7 µM |  | CC(=O)N1N=C(c2ccccc2)NN=C1c1ccccc1 |
| 1.85 µM | 1.85 µM |  | O=C(CCl)N1N=C(c2ccccc2)NN=C1c1ccccc1 |
| 48.3 µM | 48.3 µM |  | CCC(=O)N1N=C(c2ccccc2)NN=C1c1ccccc1 |
| 13.2 µM | 13.2 µM |  | Oc1ccc(Cl)cc1C1=NN=C(c2cc(Cl)ccc2O)NN1 |
| 5.55 µM | 5.55 µM |  | CC1=NN(C(=O)Nc2cccc(O)c2)C(C)=NN1C(=O)Nc1cccc(O)c1 |
| 44.9 µM | 44.9 µM |  | COc1ccccc1NC(=O)N1N=C(c2ccccc2)NN=C1c1ccccc1 |
| 14.5 µM |  | 26.6 µM | O=C(Oc1ccccc1)N1C(c2ccc(C(F)(F)F)cc2)=NN=C(c2ccc(C(F)(F)F)cc2)N1C(=O)Oc1ccccc1 |
| 39.5 µM | 39.5 µM | > 100 µM | COC(=O)N1N=C(c2ccccc2)NN=C1c1ccccc1 |
| 40.8 µM | 40.8 µM | 11.8 µM | CCCCCOC(=O)N1N=C(c2ccccc2)NN=C1c1ccccc1 |
| 44.2 µM | 44.2 µM | 24.6 µM | CC(C)CCOC(=O)N1N=C(c2ccccc2)NN=C1c1ccccc1 |
| 0.575 µM | 0.575 µM | 24.7 µM | CCOC(=O)N1N=C(c2ccc(C(F)(F)F)cc2)NN=C1c1ccc(C(F)(F)F)cc1 |
| 49.4 µM | 49.4 µM | 34.9 µM | COC(=O)N1N=C(c2ccc(Cl)cc2)NN=C1c1ccc(Cl)cc1 |
| 2.08 µM |  | 30.4 µM | COC(=O)N1C(c2ccc(C(F)(F)F)cc2)=NN=C(c2ccc(C(F)(F)F)cc2)N1C(=O)OC |
| 51.1 µM |  | > 100 µM | CCOC(=O)N1C(c2ccc(C(F)(F)F)cc2)=NN=C(c2ccc(C(F)(F)F)cc2)N1C(=O)OCC |
| 1 µM | 1 µM |  | CCCC1=NN(C(=O)Nc2cccc(C)c2)C(CCC)=NN1C(=O)Nc1cccc(C)c1 |
| 0.639 µM | 0.64 µM |  | CCC1=NN(C(=O)Nc2cccc(C)c2)C(CC)=NN1C(=O)Nc1cccc(C)c1 |
| 31.6 µM | 31.6 µM |  | CC(C)C(=O)N1N=C(c2ccc(C(F)(F)F)cc2)NN=C1c1ccc(C(F)(F)F)cc1 |
| 9.76 µM | 9.75 µM |  | CC(=O)N1N=C(c2ccc(C(F)(F)F)cc2)NN=C1c1ccc(C(F)(F)F)cc1 |
| 40 µM | 40 µM |  | FC(F)(F)c1ccc(C2=NN=C(c3ccc(C(F)(F)F)cc3)NN2)cc1 |
